Measurements from US11826402B2, “Combination therapy involving antibodies against claudin 18.2 for treatment of metastatic pancreatic adenocarcinoma” (Astellas Pharma Inc., priority 2013, dated 2023).

Tests used:
[1] = system: MiaPaCa-2-LVT; assay: IMAB362-mediated CDC after cultivation with chemotherapeutic agents
Description: Dose response curves of 2 independent assays. MiaPaCa2-LVT were cultivated in medium, Gem (10 ng/ml) or GemOx (10 ng/ml Gem+100 ng/ml Ox) for 70 h.
An additional positive control was generated at the end of the reaction by addition of 0.8% Triton X100 to a second medium control well causing total lysis. […] All samples were prepared (200 μl each) at the same time in a 96 well deepwell dilution plate. Samples were taken 3 times from each well by reverse pipetting to generate the triplicates in the assay plates.
To each well 10 μl PBS was added, except in the Triton-Lysis control wells. To each Triton-Lysis control well, 10 μl 0.8% Triton/PBS solution was added. Luciferin substrate solution was prepared (6114 μl Aqua bidest, 2496 μl HEPES (IM), 1998 μl 1×DPBS, 4992 μl D-Luciferin Stocksolution (12 mg/ml)). To each well 50 μl Luciferin substrate solution was added. […] Plates will be measured in a microplate reader. • Complement-dependent lysis was calculated using formula: Specific lysis (%)=100−[(RLUsample−RLUtriton)/(RLUHSCM−RLUtriton)×100]
Modifications for testing the pancreatic cancer cell lines: • Pancreatic cancer cells were transfected with luciferase RNA using optimized conditions.

[2] = system: KATO-III; assay: Apoptosis by cross-linking of IMAB362 (TUNEL assay); type: cell-based, human; settings: within 18-42 hours
Description: (§1) The apoptotic assay based on DNA fragmentation was performed as follows. Treated cells (adherent and floating) were fixed in 70% icecold EtOH overnight. After washing, 10^6 fixed cells were incubated with terminal deoxynucleotidyl transferase enzyme (TdT) and FITC-dUTP for 90 min at 37° C. to label DNA breaks. Cells were rinsed, incubated in RNase A/propidium iodide in the dark for 30 min at room temperature to stain total DNA, then analyzed by flowvcytometry. Cell doublets and clumps were eliminated from the analysis by gating.
(§2) The magnitude of apoptosis correlates with the dose of the antibody and level of target expression on the cancer cell. Treatment with gemcitabine leads to cell cycle arrest of tumor cells followed by apoptotic cell death.

[3] = system: NUGC-4; assay: as above; type: cell-based, human; settings: within 18-42 hours
Description: as §1, §2

[4] = system: Panc04.03; assay: IMAB362-mediated ADCC assay; type: cell-based, human; settings: at least 2 donors
[5] = system: Patu8902; assay: IMAB362-mediated CDC assay (healthy human serum pool); type: cell-based
Description: (§3) In addition, the LVT cell lines and the parental strains were tested in CDC.
(§4) CHO-K1 cells stably transfected with CLDN18.2 (p740) and luciferase were used as assay positive controls in each assay (FIG. 23A). […] This is most likely due to the fact that neoplastic cells over-express one or more membrane bound complement inhibitory proteins (e.g. CD46, CD55 and CD59) (Geis et al., Curr Cancer Drug Targets, 2010 10:922-931). However, if expression of these inhibitory proteins on tumor cells affect clinical outcome of an antibody therapy is still contradictory (Dzietczenia et al. Med. Oncol. 2010, 27:743-6; Weng and Levy at al., Blood 2001 98:1352-7). In addition to the endogenous cell lines, all the LVT cell lines were tested in CDC assays.

[6] = system: MiaPaCa2; assay: as above; type: cell-based
Description: as §3, §4

[7] = system: KATO-III; assay: IMAB362-induced ADCC on gastric cancer cells, also after chemotherapy pretreatment; type: cell-based, human; settings: KATO-III; up to 200 μg/ml, 24 hours, human PBMC E:T 40:1
Description: Peripheral blood mononuclear cells (PBMCs) including NK cells, monocytes, […] or other effector cells from healthy human donors were purified by Ficoll Hypaque density centrifugation. Washed effector cells were seeded in X-Vivo medium. Kato III cells which express CLDN18.2 endogenously and are of gastric origin were used as target cells in this setting. Target cells stably expressed luciferase, lucifer yellow, which is oxidized by viable cells only.

[8] = target: CAPAN1; assay: IMAB362-mediated CDC assay (healthy human serum pool, luciferase); type: cell-based
Description: (§5) CDC was performed as follows.

[9] = system: BxPC3; assay: as above; type: cell-based
Description: as §5

[10] = target: Panc05.04; assay: as above; type: cell-based
Description: as §5

[11] = system: YAPC; assay: as above; type: cell-based
Description: as §5

[12] = target: DANG; assay: as above; type: cell-based
Description: as §5

[13] = target: Suit2; assay: as above; type: cell-based
Description: as §5

[14] = system: Suit2-LVT metastases; assay: Suit2-LVT metastasis model (lung, Q-PCR and IHC); type: in vivo, mice; settings: 200 μg IMAB362, day 42
Description: Animals were sacrificed on day 42 post graft. […] Human cells were immunohistochemically stained in tissue sections with anti-human MHC-class I antibodies. * p<0.05 (Kruskal-Wallis test). Error bars: mean±SD.
Metastasis treatments were performed with 10-12 Hsd:Athymic Nude-Foxn1^nu mice per treatment group. […] All mice were sacrificed at the same time point, as soon as the first symptoms of metastasis disease appeared (loss of weight, weakness, shortness of breath), or the first mouse died.
All their organs were macroscopically analyzed for metastasis. […] These organs were dissected into 4 equal pieces, two (lung: upper right and lower left lobe), which were stored for genomic DNA isolation. The other two pieces were formalin fixed and stored for IHC analysis (FIG. 2).
Preparation of genomic DNA and Q-PCR strategy: Genomic DNA was extracted from lung or liver tissue.
The Q-PCR strategy is based on the amplification of human DNA present in the metastases. The relative detection level of human DNA in the mouse lung sample correlates directly with the amount and/or size of the metastases.
The Q-PCR reaction was performed with primer pair #5861 5′-[…]-3′ (SEQ ID NO: 53) and #5862 5′-[…]-3′ (SEQ ID NO: 54) specifically amplifying the alpha-satellite DNA present in human chromosome 17, but not in mouse DNA. […] The curve was used to calculate (linear regression) the amount of human metastasis DNA present in mouse lung tissue. Q-PCR reactions were performed in 50 μl final volume comprised of 20 μl (200 ng) mouse lung DNA, 25 μl Sybr Green (Qiagen), 1.6 μl sense primer (10 μM) and 1.6 μl anti-sense primer and 1.8 μl H2O.
After 35 days the first mouse (isotype control group) died. Consequently, all mice were sacrificed on day 42 and lungs and livers were taken for IHC and Q-PCR analyses.
Q-PCR analysis of human DNA in the lungs of mice was repeated at least twice in triplicate. […] The surface of the positively stained cells in the lung sections was calculated using the ImageJ Program. […]

[15] = system: DANG xenografts; assay: Subcutaneous DANG xenograft treatment; type: in vivo, mice; settings: low CLDN18.2 expressing DANG xenografts
[16] = system: CFPAC1; assay: IMAB362-mediated ADCC assay; type: cell-based, human; settings: at least 2 donors
[17] = Repeated dose toxicity study in mice; type: in vivo

In the case of “IMAB362: chimeric IgG1 antibody directed against CLDN18.2, developed by Ganymed Pharmaceuticals AG”, the “max lyses (CDC), Gem treated versus medium” value ([1]; MiaPaCa-2-LVT treated with Gem) is reported as “increase”, the “EC50 for IMAB362 specific lyses (CDC)” value ([1]; MiaPaCa-2-LVT treated with Gem (10 ng/ml, 70 h)) is reported as 4.677 µg/mL and the “EC50 for IMAB362 specific lyses (CDC)” value ([1]; medium cultivated MiaPaCa-2-LVT) is reported as 7.665 µg/mL. For the same substance, the induction of apoptosis [2] was “induces direct apoptosis”, the induction of apoptosis [3] was “induces direct apoptosis” and the “ADCC EC50” value [4] was “n.m”. The “CDC EC50” value [5] was “n.m”, the “CDC Max. lysis” value [5] was “n.m” and the “CDC EC50” value [6] was “n.m”. The “CDC Max. lysis” value [6] was “n.m”, the “maximum lysis rates (ADCC)” value [7] was 80-100% and the “CDC EC50” value [8] was “n.m”. For the same substance, the “CDC Max. lysis” value [8] was “n.m”, the “complement-dependent lysis” value ([8]; healthy human serum pool) was “not lysed” and the “complement-dependent lysis” value [9] was “not lysed”. The “CDC EC50” value [10] was “n.m”, the “CDC Max. lysis” value [10] was “n.m” and the “complement-dependent lysis” value ([10]; healthy human serum pool) was “not lysed”. The “complement-dependent lysis” value ([11]; YAPC, healthy human serum pool) was “not lysed”, the “CDC EC50” value ([11]; YPAC) was “n.m” and the “CDC Max. lysis” value ([11]; YPAC) was “n.m”. The “CDC EC50” value [12] was “n.m”, the “CDC Max. lysis” value [12] was “n.m” and the “complement-dependent lysis” value ([12]; healthy human serum pool) was “not lysed”. The “CDC EC50” value [13] was “n.m”, the “CDC Max. lysis” value [13] was “n.m” and the “complement-dependent lysis” value ([13]; healthy human serum pool) was “not lysed”. The “surface of MHC-I stained cells in lung sections (IHC)” value ([14]; versus PBS) was “significant inhibition (P<0.05)”, the “percentage of human DNA in lungs (Q-PCR)” value ([14]; versus PBS and isotype control) was “significant decrease (P<0.05)” and the “surface of MHC-I stained cells in lung sections (IHC)” value ([14]; versus isotype control antibody) was “not significant”. The “growth inhibition compared to high CLDN18.2 expressing xenograft tumors” value [15] was “reduced”, the “ADCC EC50” value [16] was “n.m” and the “ADCC Max. lysis” value [16] was 0-1.5%. The gastric toxicity ([17]; any toxicity study) was “no gastric toxicity” and the “tolerability of repeated doses i.v.” value ([17]; weekly for 3 months, up to 400 mg/kg) was “well tolerated”.
